In US7968577B2 (Bristol-Myers Squibb Company, priority 2006, dated 2011):

These molecules were tested against T1, human full-length glucocorticoid receptor (Homo sapiens, UniProt P04150) (assay: Glucocorticoid Receptor Binding Assay (II), fluorescence polarization competitor kit (Fluormone GS1)). Conditions: GR Binding Assay (II).
T1 construct: recombinantly expressed human full-length glucocorticoid receptor; purchased PanVera Co., Madison, Wis; P2816
T1 sequence (P04150 1-777): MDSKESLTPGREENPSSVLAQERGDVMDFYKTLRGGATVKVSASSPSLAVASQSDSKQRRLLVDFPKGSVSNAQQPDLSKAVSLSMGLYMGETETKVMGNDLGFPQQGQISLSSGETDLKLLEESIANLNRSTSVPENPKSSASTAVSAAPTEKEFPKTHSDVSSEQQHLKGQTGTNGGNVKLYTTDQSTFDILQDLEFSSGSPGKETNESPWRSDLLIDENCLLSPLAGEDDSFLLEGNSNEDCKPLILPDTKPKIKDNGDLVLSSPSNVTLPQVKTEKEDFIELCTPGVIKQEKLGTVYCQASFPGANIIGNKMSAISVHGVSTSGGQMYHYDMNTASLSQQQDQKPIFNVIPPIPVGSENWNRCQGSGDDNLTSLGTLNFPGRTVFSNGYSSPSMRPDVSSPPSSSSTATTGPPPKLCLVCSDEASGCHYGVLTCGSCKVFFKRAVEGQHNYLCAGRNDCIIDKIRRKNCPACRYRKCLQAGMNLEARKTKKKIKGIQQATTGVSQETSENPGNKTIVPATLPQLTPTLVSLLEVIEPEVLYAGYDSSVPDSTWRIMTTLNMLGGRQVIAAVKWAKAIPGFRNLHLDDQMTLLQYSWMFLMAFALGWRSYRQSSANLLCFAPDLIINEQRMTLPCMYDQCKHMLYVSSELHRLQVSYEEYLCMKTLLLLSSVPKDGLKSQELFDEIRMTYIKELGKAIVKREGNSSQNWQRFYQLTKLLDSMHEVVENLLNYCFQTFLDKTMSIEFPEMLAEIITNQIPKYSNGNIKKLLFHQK
Experimental: Glucocorticoid Receptor Binding Assay (II)^b
In order to measure the binding of compounds on the glucocorticoid receptor a commercially available kit was used (Glucocorticoid receptor competitor assay kit, PanVera Co., Madison, Wis., P2816). Briefly, a cell lysate containing recombinantly expressed human full-length glucocorticoid receptor was mixed with a fluorescently labeled glucocorticoid (1 nM Fluormone GS1) in the presence or absence of test compound. After one hour at room temperature, the fluorescence polarization (FP) of the samples were measured.
With `COc1ccc([C@H](c2ccccc2)C(C)(C)C(=O)Nc2ncc(C)s2)cc1` [Example 267, (3S)-2,2-dimethyl-3-(4-(methyloxy)phenyl)-N-(5-methyl-1,3-thiazol-2-yl)-3-phenylpropanamide] the Ki was 111 nM. For `COc1ccc([C@@H](c2ccccc2)C(C)(C)C(=O)Nc2ncc(C)s2)cc1` [Example 268, (3R)-2,2-dimethyl-3-(4-(methyloxy)phenyl)-N-(5-mehtyl-1,3-thiazol-2-yl)-3-phenylpropanamide], the Ki was 302 nM. `COc1ccc([C@H](c2ccccc2)C(C)(C)C(=O)NC2CC2)cc1` [Example 269, (3S)-N-cyclopropyl-2,2-dimethyl-3-(4-(methyloxy)phenyl)-3-phenylpropanamide] showed a Ki of 1300 nM. `COc1ccc([C@@H](c2ccccc2)C(C)(C)C(=O)NC2CC2)cc1` [Example 270, (3R)-N-cyclopropyl-2,2-dimethyl-3-(4-(methyloxy)phenyl)-3-phenylpropanamide] showed a Ki of 2000 nM. For `COc1ccc([C@H](c2ccccc2)C(C)(C)C(=O)NC2CCC2)cc1` [Example 271, (3S)-N-cyclobutyl-2,2-dimethyl-3-(4-(methyloxy)phenyl)-3-phenylpropanamide], the Ki was 770 nM. `COc1ccc([C@@H](c2ccccc2)C(C)(C)C(=O)NC2CCC2)cc1` [Example 272, (3R)-N-cyclobutyl-2,2-dimethyl-3-(4-(methyloxy)phenyl)-3-phenylpropanamide] gave a Ki of 1160 nM. `COc1ccc([C@H](c2ccccc2)C(C)(C)C(=O)NC2CCCC2)cc1` [Example 273, (3S)-N-cyclopentyl-2,2-dimethyl-3-(4-(methyloxy)phenyl)-3-phenylpropanamide] showed a Ki of 987 nM. `COc1ccc([C@@H](c2ccccc2)C(C)(C)C(=O)NC2CCCC2)cc1` [Example 274, (3R)-N-cyclopentyl-2,2-dimethyl-3-(4-(methyloxy)phenyl)-3-phenylpropanamide] showed a Ki of 1530 nM. `COc1ccc([C@H](c2ccccc2)C(C)(C)C(=O)Nc2nncs2)cc1` [Example 275] gave a Ki of 51.9 nM. For `COc1ccc([C@H](c2ccccc2)C(C)(C)C(=O)Nc2ccccn2)cc1` [Example 277, (3S)-2,2-dimethyl-3-(4-(methyloxy)phenyl)-3-phenyl-N-2-pyridinylpropanamide], the Ki was 2670 nM. `COc1ccc([C@H](c2ccccc2)C(C)(C)C(=O)Nc2ccncn2)cc1` [Example 278, (3S)-2,2-dimethyl-3-(4-(methyloxy)phenyl)-3-phenyl-N-4-pyrimidinylpropanamide] gave a Ki of 1850 nM. `COc1ccc(C(c2ccccc2)C(C)(C)C(=O)Nc2nccs2)c(F)c1` (stereo not shown) [Example 279, 3-(2-fluoro-4-(methyloxy)phenyl)-2,2-dimethyl-3-phenyl-N-1,3-thiazol-2-ylpropanamide] showed a Ki of 74.7 nM. `COc1ccc(C(c2ccccc2)C(C)(C)C(=O)Nc2nncs2)c(F)c1` (stereo not shown) [Example 280, 3-(2-fluoro-4-(methyloxy)phenyl)-2,2-dimethyl-3-phenyl-N-1,3,4-thiadiazol-2-ylpropanamide] was tested, and the Ki was 100 nM. Work on `COc1ccc(C(c2ccccc2)C(C)(C)C(=O)Nc2nccs2)cc1F` (stereo not shown) [Example 281, 3-(3-fluoro-4-(methyloxy)phenyl)-2,2-dimethyl-3-phenyl-N-1,3-thiazol-2-ylpropanamide] yielded a Ki of 15.5 nM. `COc1ccc(C(c2ccccc2)C(C)(C)C(=O)Nc2nccs2)cc1F` (stereo not shown) [Example 282, 3-(3-fluoro-4-(methyloxy)phenyl)-2,2-dimethyl-3-phenyl-N-1,3-thiazol-2-ylpropanamide] gave a Ki of 29.5 nM. `COc1ccc(C(c2ccccc2)C(C)(C)C(=O)Nc2nccs2)cc1F` (stereo not shown) [Example 283, 3-(3-fluoro-4-(methyloxy)phenyl)-2,2-dimethyl-3-phenyl-N-1,3-thiazol-2-ylpropanamide] was tested, and the Ki was 9.2 nM. Work on `COc1ccc(C(c2ccccc2)C(C)(C)C(=O)Nc2nncs2)cc1F` (stereo not shown) [Example 284, 3-(3-fluoro-4-(methyloxy)phenyl)-2,2-dimethyl-3-phenyl-N-1,3,4-thiadiazol-2-ylpropanamide] yielded a Ki of 26.9 nM. Molecule `COc1ccc(C(c2ccccc2)C(C)(C)C(=O)Nc2nncs2)cc1F` (stereo not shown) [Example 285, 3-(3-fluoro-4-(methyloxy)phenyl)-2,2-dimethyl-3-phenyl-N-1,3,4-thiadiazol-2-ylpropanamide] has a Ki of 13.8 nM. `COc1ccc([C@@H](c2ccccc2)C(C)(C)C(=O)Nc2nccs2)cc1Br` [Example 286, (3R)-3-(3-bromo-4-(methyloxy)phenyl)-2,2-dimethyl-3-phenyl-N-1,3-thiazol-2-ylpropanamide] gave a Ki of 46.7 nM. Molecule `COc1ccc([C@H](c2ccccc2)C(C)(C)C(=O)Nc2nncs2)cc1Br` [Example 287, (3S)-3-(3-bromo-4-(methyloxy)phenyl)-2,2-dimethyl-3-phenyl-N-1,3,4-thiadiazol-2-ylpropanamide] has a Ki of 14.7 nM. `COc1ccc([C@@H](c2ccccc2)C(C)(C)C(=O)Nc2nccs2)cc1C#N` [Example 296, (3R)-3-(3-Cyano-4-(methyloxy)phenyl)-2,2-dimethyl-3-phenyl-N-1,3-thiazol-2-ylpropanamide] gave a Ki of 45.7 nM. `CC(C)(C(=O)Nc1nccs1)C(c1ccccc1)c1ccc(Cl)cc1` (stereo not shown) [Example 306, 3-(4-chlorophenyl)-2,2-dimethyl-3-phenyl-N-1,3-thiazol-2-ylpropanamide] gave a Ki of 26.3 nM. `CC(C)(C(=O)Nc1nccs1)C(c1ccccc1)c1ccc(F)cc1` (stereo not shown) [Example 307, 3-(4-fluorophenyl)-2,2-dimethyl-3-phenyl-N-1,3-thiazol-2-ylpropanamide] showed a Ki of 15.5 nM. In the case of `CC(C)(C(=O)Nc1nccs1)C(c1ccccc1)c1ccc(F)cc1` (stereo not shown) [Example 308, 3-(4-fluorophenyl)-2,2-dimethyl-3-phenyl-N-1,3-thiazol-2-ylpropanamide], the Ki is reported as 35 nM. `CC(C)(C(=O)Nc1nccs1)C(c1ccccc1)c1ccc(F)cc1` (stereo not shown) [Example 309, 3-(4-fluorophenyl)-2,2-dimethyl-3-phenyl-N-1,3-thiazol-2-ylpropanamide] was tested, and the Ki was 76.4 nM. `CC(C)(C(=O)Nc1nccs1)C(c1ccccc1)c1ccc(C#N)cc1` (stereo not shown) [Example 310, 3-(4-cyanophenyl)-2,2-dimethyl-3-phenyl-N-1,3-thiazol-2-ylpropanamide] gave a Ki of 26.6 nM. For `CC(C)(C(=O)Nc1nccs1)C(c1ccccc1)c1cccc(Br)c1` (stereo not shown) [Example 311, 3-(3-bromophenyl)-2,2-dimethyl-3-phenyl-N-1,3-thiazol-2-ylpropanamide], the Ki was 17.5 nM. With `CC(C)(C(=O)Nc1nncs1)C(c1ccccc1)c1cccc(Br)c1` (stereo not shown) [Example 312, 3-(3-bromophenyl)-2,2-dimethyl-3-phenyl-N-1,3-thiadiazol-2-ylpropanamide] the Ki was 19.9 nM. `CC(C)(C(=O)Nc1nccs1)C(c1ccccc1)c1cccc(C#N)c1` (stereo not shown) [Example 313, 3-(3-cyanophenyl)-2,2-dimethyl-3-phenyl-N-1,3-thiazol-2-ylpropanamide] showed a Ki of 57.6 nM. Work on `CC(C)(C(=O)Nc1nccs1)C(c1ccccc1)c1ccc(Br)c(F)c1` (stereo not shown) [Example 314, 3-(4-bromo-3-fluorophenyl)-2,2-dimethyl-3-phenyl-N-1,3-thiazol-2-ylpropanamide] yielded a Ki of 13.2 nM. `CC(C)(C(=O)Nc1nncs1)C(c1ccccc1)c1ccc(Br)c(F)c1` (stereo not shown) [Example 315, 3-(4-bromo-3-fluorophenyl)-2,2-dimethyl-3-phenyl-N-1,3,4-thiadiazol-2-ylpropanamide] gave a Ki of 10.9 nM. `CC(C)(C(=O)Nc1nccs1)C(C)(c1ccccc1)c1ccccc1` [Example 316, 2,2-dimethyl-3,3-diphenyl-N-1,3-thiazol-2-ylbutanamide] showed a Ki of 472 nM. For `CC(C)(C(=O)Nc1nccs1)C(c1ccccc1)c1ccc(Br)cc1` (stereo not shown) [Example 317, 3-(4-bromophenyl)-2,2-dimethyl-3-phenyl-N-1,3-thiazol-2-ylpropanamide], the Ki was 23.2 nM. In the case of `CC(C)(C(=O)Nc1nncs1)C(c1ccccc1)c1ccc(Br)cc1` (stereo not shown) [Example 318, 3-(4-bromophenyl)-2,2-dimethyl-3-phenyl-N-1,3,4-thiadiazol-2-ylpropanamide], the Ki is reported as 12.8 nM. Molecule `CC(C)(C(=O)Nc1nccs1)[C@@H](c1ccccc1)c1cccc(O)c1` [Example 327, 3-(3-hydroxyphenyl)-2,2-dimethyl-3-phenyl-N-1,3-thiazol-2-ylpropanamide] has a Ki of 90.9 nM. Work on `CC(C)(C(=O)Nc1nccs1)[C@H](c1ccccc1)c1cccc(O)c1` [Example 328, 3-(3-hydroxyphenyl)-2,2-dimethyl-3-phenyl-N-1,3-thiazol-2-ylpropanamide] yielded a Ki of 17.8 nM. In the case of `Cc1csc(NC(=O)C(C)(C)[C@@H](c2ccccc2)c2ccc(O)cc2)n1` [Example 329, (3S)-3-(4-hydroxyphenyl)-2,2-dimethyl-N-(4-methyl-1,3-thiazol-2-yl)-3-phenylpropanamide], the Ki is reported as 16.8 nM.
